{
  "source": "patent US20120058150A1",
  "about": "“Methods for Delivering Compositions by Electrospraying a Medical Device” (COLORADO STATE UNIVERSITY RESEARCH FOUNDATION, priority 2010, published 2012)",
  "experiment": "gentamicin sulfate loading efficiency of E-sprayed DOPS coatings",
  "type": "physicochemical",
  "details": "14 kV E-spray voltage compared with the other voltages (FIG. 4)",
  "data": [
    {"substance": "gentamicin sulfate", "values": [
      {"measurement": "gentamicin sulfate loading efficiencies", "value": "significantly greater"}
    ]}
  ]
}
